PubChem BioAssay (NCI)
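The compound was tested at five concentrations on cells cultured in 96-well plates, with a 48-hour exposure period. TGI denotes the concentration required for complete inhibition of growth.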

Tests used:
Experiment in all cases: NCI anticancer screen, dose series, 48 h
[1] = test system: OVCAR-8 ovarian
[2] = test system: NCI-H23 lung
[3] = test system: OVCAR-4 ovarian
[4] = test system: UACC-257 melanoma
[5] = test system: SK-MEL-5 melanoma
[6] = test system: OVCAR-3 ovarian
[7] = test system: HT29 colon
[8] = test system: KM12 colon
[9] = test system: SF-268 CNS
[10] = test system: CAKI-1 renal

Row | Structure (SMILES) | TGI [1] [µM] | TGI [2] [µM] | TGI [3] [µM] | TGI [4] [µM] | TGI [5] [µM] | TGI [6] [µM] | TGI [7] [µM] | TGI [8] [µM] | TGI [9] [µM] | TGI [10] [µM]
1 | CSc1nc2c3ccccc3ccn2c1C(=O)N/N=C/c1ccccc1 | 44.7 | > 100 | 39.1 | > 100 | > 100 | 37.4 | > 100 | > 100 | > 72.1 | > 40
2 | CCOC(=O)/C=C\C(C#N)(C#N)N=Cc1ccsc1 | 14.6 | 29.9 | 19.2 | 20.9 | 35.4 | 6.42 | 28.1 | 36.5 | 22 | 5.33
3 | Cc1ccc(/N=N/C(=NNC(=O)c2ccc(C)cc2)c2ccc(N(C)C)cc2)cc1 | > 100 | 69.3 | 54 | 60 | 30.7 | 54.2 | 91.3 | 37 | > 100 | 48.8
